Source: patent US7612064B2, “Sulfopyrroles” (Takeda Pharmaceutical Company Limited, priority 2003, dated 2009)
Each block holds one compound with its values, some of them ahead of it.

Assays:
[1] = test system: HeLa; test: MTS proliferation assay; format: cell-based, human; details: 72 h
Description: (§1) The assay is performed in 96 well tissue culture plates. […] The test compounds are added in 20 μl complete medium containing max 5% DMSO. The final compound concentrations in the assays are 10 μM, 3 μM, 1 μM and 0.3 μM, respectively. The assay plates are incubated for 72 h at culture conditions. The MTS reagent is prepared according to the manufacturer's protocol (Promega G1111). 20 μl MTS reagent are added to each well, the assay plates are quickly spun and incubated for another 3 h at culture conditions. Subsequently, the plates are shortly shacked and absorption measured with a microplate-reader at 492 nm.

[2] = Hoechst 33342 nuclear staining; format: cell-based; details: for Hoechst 33342 nuclear staining score, HeLa: HeLa cells; for Hoechst 33342 nuclear staining score, Jurkat: Jurkat cells; for Hoechst 33342 nuclear staining score, H460: H460 cells; for Hoechst 33342 nuclear staining score, Jily: Jily cells; for Hoechst 33342 nuclear staining score, MRC5: MRC5 cells;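 on all read-outs here: apoptotic nuclei scored 0 none 1 weak under 50% of cells 2 strong over 50% of cells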
Description: This assay is performed in 96 well tissue culture plates. Appropriate number of cells (adherent cells: 3-5*10^3, suspension cells: 8-10*10^3) are being seeded out in 80 μl complete medium. Adherent cells are incubated for 24 h for proper spreading out before addition of test compounds while suspension cells are immediately treated with test compounds after seeding out. The test compounds are added in 20 μl complete medium containing max 5% DMSO. […] […] The assay plates are then further incubated for 30 min and subsequently analyzed with a standard inverted fluorescence microscope.
The readout allows the determination of the fraction of apoptotic nuclei as well as other morphological criteria specific for apoptosis as a function of the treatment. The following scores are used: 0 relating to no activity, 1 relating to weak activity comprising less than 50% of the cells and score 2 relating to strong activity comprising more than 50% of the cells.

[3] = test system: MRC5; test: MTS proliferation assay; format: cell-based; details: MRC5, 72 h
Description: as §1

[4] = test system: Jurkat; test: MTS proliferation assay; format: cell-based, human; details: 72 h
Description: as §1

[5] = conc 0.1 (final concentrations in μM), 24 h or 48 h incubation
[6] = conc 0.3 (final concentrations in μM), 24 h or 48 h incubation
[7] = conc 1 (final concentrations in μM), 24 h or 48 h incubation
[8] = conc 3 (final concentrations in μM), 24 h or 48 h incubation
[9] = conc 10 (final concentrations in μM), 24 h or 48 h incubation

SMILES: Cc1ccc(S(=O)(=O)n2cc(CNCCc3ccccc3)cc2-c2cccs2)cc1 [Example 7]
IC50 [1]: > 1000 nM
Hoechst 33342 nuclear staining score, HeLa [2, 5]: 0
Hoechst 33342 nuclear staining score, HeLa [2, 6]: 0
Hoechst 33342 nuclear staining score, HeLa [2, 7]: 0
Hoechst 33342 nuclear staining score, HeLa [2, 8]: 0
Hoechst 33342 nuclear staining score, Jurkat [2, 5]: 0
Hoechst 33342 nuclear staining score, Jurkat [2, 6]: 0
Hoechst 33342 nuclear staining score, Jurkat [2, 7]: 0
Hoechst 33342 nuclear staining score, Jurkat [2, 8]: 0

SMILES: COc1ccc(CCNCc2cc(-c3ccc4c(c3)OCO4)n(S(=O)(=O)c3ccc(C)cc3)c2)cc1 [Example 11]
IC50 [1]: > 1000 nM
Hoechst 33342 nuclear staining score, HeLa [2, 5]: 0
Hoechst 33342 nuclear staining score, HeLa [2, 6]: 0
Hoechst 33342 nuclear staining score, HeLa [2, 7]: 0
Hoechst 33342 nuclear staining score, HeLa [2, 8]: 0
Hoechst 33342 nuclear staining score, Jurkat [2, 5]: 0
Hoechst 33342 nuclear staining score, Jurkat [2, 6]: 0
Hoechst 33342 nuclear staining score, Jurkat [2, 7]: 0
Hoechst 33342 nuclear staining score, Jurkat [2, 8]: 0

IC50 [1]: > 1000 nM
SMILES: Cc1ccc(S(=O)(=O)n2cc(CNc3ccc(CN4CCOCC4)cc3)cc2-c2ccc3c(c2)OCO3)cc1 [Example 41]
Hoechst 33342 nuclear staining score, HeLa [2, 6]: 0
Hoechst 33342 nuclear staining score, HeLa [2, 7]: 0
Hoechst 33342 nuclear staining score, HeLa [2, 8]: 0
Hoechst 33342 nuclear staining score, HeLa [2, 9]: 0
Hoechst 33342 nuclear staining score, Jurkat [2, 6]: 0
Hoechst 33342 nuclear staining score, Jurkat [2, 7]: 0
Hoechst 33342 nuclear staining score, Jurkat [2, 8]: 0
Hoechst 33342 nuclear staining score, Jurkat [2, 9]: 0
IC50 [3]: > 1000 nM

SMILES: Cc1ccc(S(=O)(=O)n2cc(CNc3ccc(N4CCOCC4)cc3)cc2-c2cccs2)cc1 [Example 9]
IC50 [1]: > 1000 nM
Hoechst 33342 nuclear staining score, HeLa [2, 5]: 0
Hoechst 33342 nuclear staining score, HeLa [2, 6]: 0
Hoechst 33342 nuclear staining score, HeLa [2, 7]: 0
Hoechst 33342 nuclear staining score, HeLa [2, 8]: 1 (weak activity comprising less than 50% of the cells)
Hoechst 33342 nuclear staining score, Jurkat [2, 5]: 0
Hoechst 33342 nuclear staining score, Jurkat [2, 6]: 0
Hoechst 33342 nuclear staining score, Jurkat [2, 7]: 0
Hoechst 33342 nuclear staining score, Jurkat [2, 8]: 2 (strong activity comprising more than 50% of the cells)

SMILES: COc1cc(-c2cc(-c3cncc(CN(C)C)c3)cn2S(=O)(=O)c2ccc(C)cc2)cc(OC)c1OC [Example 59]
IC50 [1]: > 1000 nM
Hoechst 33342 nuclear staining score, H460 ([2]; conc 0.1): 0
Hoechst 33342 nuclear staining score, H460 ([2]; conc 0.3): 0
Hoechst 33342 nuclear staining score, H460 ([2]; conc 1): 0
Hoechst 33342 nuclear staining score, H460 ([2]; conc 3): 2 (strong activity comprising more than 50% of the cells)
Hoechst 33342 nuclear staining score, HeLa ([2]; conc 0.1): 0
Hoechst 33342 nuclear staining score, HeLa ([2]; conc 0.3): 0
Hoechst 33342 nuclear staining score, HeLa ([2]; conc 1): 0
Hoechst 33342 nuclear staining score, HeLa ([2]; conc 3): 0
Hoechst 33342 nuclear staining score, Jily ([2]; conc 0.1): 0
Hoechst 33342 nuclear staining score, Jily ([2]; conc 0.3): 0
Hoechst 33342 nuclear staining score, Jily ([2]; conc 1): 0
Hoechst 33342 nuclear staining score, Jily ([2]; conc 3): 0
Hoechst 33342 nuclear staining score, Jurkat ([2]; conc 0.1): 0
Hoechst 33342 nuclear staining score, Jurkat ([2]; conc 0.3): 0
Hoechst 33342 nuclear staining score, Jurkat ([2]; conc 1): 0
Hoechst 33342 nuclear staining score, Jurkat ([2]; conc 3): 2 (strong activity comprising more than 50% of the cells)
Hoechst 33342 nuclear staining score, MRC5 ([2]; conc 0.1): 0
Hoechst 33342 nuclear staining score, MRC5 ([2]; conc 0.3): 0
Hoechst 33342 nuclear staining score, MRC5 ([2]; conc 1): 0
Hoechst 33342 nuclear staining score, MRC5 ([2]; conc 3): 0
Hoechst 33342 nuclear staining score, PBLs ([2]; conc 0.1): 0
Hoechst 33342 nuclear staining score, PBLs ([2]; conc 0.3): 0
Hoechst 33342 nuclear staining score, PBLs ([2]; conc 1): 0
Hoechst 33342 nuclear staining score, PBLs ([2]; conc 3): 0
IC50 [3]: > 1000 nM

SMILES: Cc1ccc(S(=O)(=O)n2cc(CNCCc3ccccc3)cc2-c2ccc3c(c2)OCO3)cc1 [Example 43]
IC50 [1]: > 1000 nM
Hoechst 33342 nuclear staining score, HeLa [2, 6]: 0
Hoechst 33342 nuclear staining score, HeLa [2, 7]: 0
Hoechst 33342 nuclear staining score, HeLa [2, 8]: 0
Hoechst 33342 nuclear staining score, HeLa [2, 9]: 0
Hoechst 33342 nuclear staining score, Jurkat [2, 6]: 0
Hoechst 33342 nuclear staining score, Jurkat [2, 7]: 0
Hoechst 33342 nuclear staining score, Jurkat [2, 8]: 0
Hoechst 33342 nuclear staining score, Jurkat [2, 9]: 0
IC50 [3]: > 1000 nM

IC50 [1]: > 1000 nM
SMILES: Cc1ccc(S(=O)(=O)n2cc(CNc3ccc(S(N)(=O)=O)cc3)cc2-c2ccc3c(c2)OCO3)cc1 [Example 45]
Hoechst 33342 nuclear staining score, HeLa [2, 6]: 0
Hoechst 33342 nuclear staining score, HeLa [2, 7]: 0
Hoechst 33342 nuclear staining score, HeLa [2, 8]: 0
Hoechst 33342 nuclear staining score, HeLa [2, 9]: 1 (weak activity comprising less than 50% of the cells)
Hoechst 33342 nuclear staining score, Jurkat [2, 6]: 0
Hoechst 33342 nuclear staining score, Jurkat [2, 7]: 0
Hoechst 33342 nuclear staining score, Jurkat [2, 8]: 0
Hoechst 33342 nuclear staining score, Jurkat [2, 9]: 2 (strong activity comprising more than 50% of the cells)
IC50 [3]: > 1000 nM

SMILES: Cc1ccc(S(=O)(=O)n2cc(CNCCCN(C)C)cc2-c2ccc3c(c2)OCO3)cc1.Cl.Cl [2 × 2HCl]
Hoechst 33342 nuclear staining score, HeLa [2, 5]: 0
Hoechst 33342 nuclear staining score, HeLa [2, 6]: 0
Hoechst 33342 nuclear staining score, HeLa [2, 7]: 0
Hoechst 33342 nuclear staining score, HeLa [2, 8]: 0
Hoechst 33342 nuclear staining score, Jurkat [2, 5]: 0
Hoechst 33342 nuclear staining score, Jurkat [2, 6]: 0
Hoechst 33342 nuclear staining score, Jurkat [2, 7]: 0
Hoechst 33342 nuclear staining score, Jurkat [2, 8]: 0

IC50 ([1]; Homo sapiens): > 1000 nM
SMILES: Cc1ccc(S(=O)(=O)n2cc(CNCCCN(C)C)cc2-c2ccc3c(c2)OCO3)cc1 [Example 2, 4-(N-[3-Dimethylaminopropyl]-aminomethyl)-2-(3,4-methylenedioxyphenyl)-1-(p-toluenesulfonyl)-pyrrole]
Hoechst 33342 nuclear staining score, HeLa [2, 5]: 0
Hoechst 33342 nuclear staining score, HeLa [2, 6]: 0
Hoechst 33342 nuclear staining score, HeLa [2, 7]: 0
Hoechst 33342 nuclear staining score, HeLa [2, 8]: 0
Hoechst 33342 nuclear staining score, Jurkat [2, 5]: 0
Hoechst 33342 nuclear staining score, Jurkat [2, 6]: 0
Hoechst 33342 nuclear staining score, Jurkat [2, 7]: 0
Hoechst 33342 nuclear staining score, Jurkat [2, 8]: 0
IC50 ([3]; Homo sapiens): > 1000 nM

SMILES: Cc1ccc(S(=O)(=O)n2cc(CNCCCN3CCN(C)CC3)cc2-c2ccc3c(c2)OCO3)cc1.Cl.Cl [Example 13]
Hoechst 33342 nuclear staining score, HeLa [2, 5]: 0
Hoechst 33342 nuclear staining score, HeLa [2, 6]: 0
Hoechst 33342 nuclear staining score, HeLa [2, 7]: 0
Hoechst 33342 nuclear staining score, HeLa [2, 8]: 0
Hoechst 33342 nuclear staining score, Jurkat [2, 5]: 0
Hoechst 33342 nuclear staining score, Jurkat [2, 6]: 0
Hoechst 33342 nuclear staining score, Jurkat [2, 7]: 0
Hoechst 33342 nuclear staining score, Jurkat [2, 8]: 0

IC50 [1]: > 1000 nM
SMILES: Cc1ccc(S(=O)(=O)n2cc(CNc3ccccn3)cc2-c2ccc3c(c2)OCO3)cc1 [Example 44]
Hoechst 33342 nuclear staining score, HeLa [2, 6]: 0
Hoechst 33342 nuclear staining score, HeLa [2, 7]: 0
Hoechst 33342 nuclear staining score, HeLa [2, 8]: 0
Hoechst 33342 nuclear staining score, HeLa [2, 9]: 2 (strong activity comprising more than 50% of the cells)
Hoechst 33342 nuclear staining score, Jurkat [2, 6]: 0
Hoechst 33342 nuclear staining score, Jurkat [2, 7]: 0
Hoechst 33342 nuclear staining score, Jurkat [2, 8]: 0
Hoechst 33342 nuclear staining score, Jurkat [2, 9]: 2 (strong activity comprising more than 50% of the cells)
IC50 [3]: > 1000 nM

SMILES: Cc1ccc(S(=O)(=O)n2cc(CNCCCc3ccccc3)cc2-c2ccc3c(c2)OCO3)cc1 [Example 10]
IC50 [1]: > 1000 nM
Hoechst 33342 nuclear staining score, HeLa [2, 5]: 0
Hoechst 33342 nuclear staining score, HeLa [2, 6]: 0
Hoechst 33342 nuclear staining score, HeLa [2, 7]: 0
Hoechst 33342 nuclear staining score, HeLa [2, 8]: 0
Hoechst 33342 nuclear staining score, Jurkat [2, 5]: 0
Hoechst 33342 nuclear staining score, Jurkat [2, 6]: 0
Hoechst 33342 nuclear staining score, Jurkat [2, 7]: 0
Hoechst 33342 nuclear staining score, Jurkat [2, 8]: 0
IC50 [3]: > 1000 nM

IC50 [1]: > 1000 nM
IC50 [4]: > 1000 nM
SMILES: Cc1ccc(S(=O)(=O)n2cc(-c3ccc(C(N)=O)cc3)cc2-c2ccc3c(c2)OCO3)cc1 [Example 47]
Hoechst 33342 nuclear staining score, HeLa [2, 5]: 0
Hoechst 33342 nuclear staining score, HeLa [2, 6]: 0
Hoechst 33342 nuclear staining score, HeLa [2, 7]: 2 (strong activity comprising more than 50% of the cells)
Hoechst 33342 nuclear staining score, HeLa [2, 8]: 2 (strong activity comprising more than 50% of the cells)
Hoechst 33342 nuclear staining score, Jurkat [2, 5]: 0
Hoechst 33342 nuclear staining score, Jurkat [2, 6]: 0
Hoechst 33342 nuclear staining score, Jurkat [2, 7]: 0
Hoechst 33342 nuclear staining score, Jurkat [2, 8]: 0

SMILES: CCN(Cc1cc(-c2cccs2)n(S(=O)(=O)c2ccc(C)cc2)c1)c1ccc(OC)cc1OC [Example 1, 4(N-2,4-Dimethoxyphenyl-N-ethylaminomethyl)-2-(2-thienyl)-1-(p-toluene-sulfonyl)-pyrrole]
IC50 [1]: > 1000 nM
IC50 [3]: > 1000 nM
